Several values for one entry are separate records, joined by “and”; a condition that tells them apart may be missing. Equal values may be shown once.
How the values were obtained:
rat = rat hypocalcaemic activity test described by Kumar et al, J. Endocrinology 33, page 470 [1965] (MRC units); format: in vivo; conditions: per mg of peptide or product
rats = test: lowering of plasma calcium and plasma phosphate level in tests on rats weighing 50 to 150 g; format: in vivo, rat
[1] = tested on: patients with increased bone turn over; test: lowering of blood calcium level in patients with increased bone turn over; format: in vivo, human; conditions: intravenous, intramuscular or subcutaneous injection of 0.01 to 5 mg, e.g. in 0.1 molar acetate buffer pH 4.6

Row | Compound | activity in the rat (rat) | plasma calcium level (rats) | plasma phosphate level (rats) | calcium level of the blood [1]
1 | CC[C@H](C)[C@H](NC(=O)[C@H](C)NC(=O)[C@@H](NC(=O)[C@H](CCC(N)=O)NC(=O)[C@@H]1CCCN1C(=O)[C@H](Cc1ccccc1)NC(=O)[C@@H](NC(=O)[C@H](Cc1c[nH]cn1)NC(=O)[C@H](Cc1ccccc1)NC(=O)[C@H](CCCCN)NC(=O)[C@H](CC(N)=O)NC(=O)[C@H](Cc1ccccc1)NC(=O)[C@H](CC(=O)O)NC(=O)[C@H](CCC(N)=O)NC(=O)[C@@H](NC(=O)[C@H](Cc1ccc(O)cc1)NC(=O)[C@@H](NC(=O)CNC(=O)[C@H](CC(C)C)NC(=O)[C@H](CCSC)NC(=O)[C@@H]1CSSC[C@H](N)C(=O)NCC(=O)N[C@@H](CC(N)=O)C(=O)N[C@@H](CC(C)C)C(=O)N[C@@H](CO)C(=O)N[C@@H]([C@@H](C)O)C(=O)N1)[C@@H](C)O)[C@@H](C)O)[C@@H](C)O)[C@@H](C)O)C(=O)NCC(=O)N[C@H](C(=O)NCC(=O)N[C@@H](C)C(=O)N1CCC[C@H]1C(N)=O)C(C)C [HT-C2] | 100 to 200 MRC units per mg and 100-200 MRC units per mg |  |  | 
2 | Human calcitonin |  | lowers | lowers | lowers the calcium level of the blood

From US4347242A, “Hypocalcaemic peptides and process for their manufacture” (Ciba-Geigy Corporation, priority 1978, dated 1982)
